pIC50: −log10 of the molar value. Where two headings read alike, the source gives them in different places.
Experiments:
[1] = system: LPS and nigericin stimulated cells; test: cells; assay type: cell-based; conditions: Homo sapiens, read-out: CTG protective IC50
Description: Viability of compound treated cells is measured using CellTiter-Glo® assay (Promega, Madison, Wis.) that measures the ATP content of cells which is proportional to the number of live cells within a well. This is a counter-screen to establish that the reduction of IL-1β levels in LPS and nigericin stimulated and compound treated cells is not due to cytotoxicity, but rather through the inhibition of the inflammasome pathway. Compounds inhibiting NRLP3 inflammasome activation ultimately increase the viability of LPS and nigericin stimulated cells by blocking NLRP3 mediated pyroptosis that would otherwise lead to cell lysis.

NLRP3 inflammasome = NLRP3 inflammasome (Homo sapiens, UniProt Q96P20); test: NLRP3 inflammasome activation assay in PBMCs (LPS priming, nigericin), IL-1β by ELISA; assay type: cell-based; set-up: Human peripheral blood mononuclear cells (PBMCs); host or cells: primary human PBMCs from healthy donors
Description: Some of the following assays were used to determine the inhibitory activity of the compounds on the NLRP3 inflammasome using a common inflammasome activation stimuli-nigericin.
Human peripheral blood mononuclear cells (PBMCs), consisting of lymphocytes (T, B and NK cells), monocytes and dendritic cells, were freshly isolated from human peripheral blood from healthy donors. Cells were obtained through an IRB approved donor program by iXCells Biotechnologies where all the donors were tested for bacterial and viral infections. Cells were purified from peripheral blood using ficoll gradient centrifugation.
Cells were then stimulated with 10 uM Nigericin (Sigma Aldrich; InvivoGen) for 1.5 h. Plates were centrifuged at 1,500 rpm for 3 minutes to pellet cells and supernatant was transferred into new plates for subsequent experiments.
For ELISA assays cells were seeded into 96-well plates. Post study, supernatants were removed and the levels of mature IL-1β, IL-18 and TNFα (Quantikine ELISA, R&D systems) were measured in cell conditioned media by ELISA according to manufacturer's instructions.

[2] = LPS and nigericin stimulated cells, CellTiter-Glo
[3] = LPS, nigericin, read-out: PBMC IL-1β IC50
[4] = LPS 100 ng/mL 3 h, nigericin 10 uM 1.5 h, read-out: IC50 IL-1β

Sequence of NLRP3 inflammasome (Q96P20 whole entry): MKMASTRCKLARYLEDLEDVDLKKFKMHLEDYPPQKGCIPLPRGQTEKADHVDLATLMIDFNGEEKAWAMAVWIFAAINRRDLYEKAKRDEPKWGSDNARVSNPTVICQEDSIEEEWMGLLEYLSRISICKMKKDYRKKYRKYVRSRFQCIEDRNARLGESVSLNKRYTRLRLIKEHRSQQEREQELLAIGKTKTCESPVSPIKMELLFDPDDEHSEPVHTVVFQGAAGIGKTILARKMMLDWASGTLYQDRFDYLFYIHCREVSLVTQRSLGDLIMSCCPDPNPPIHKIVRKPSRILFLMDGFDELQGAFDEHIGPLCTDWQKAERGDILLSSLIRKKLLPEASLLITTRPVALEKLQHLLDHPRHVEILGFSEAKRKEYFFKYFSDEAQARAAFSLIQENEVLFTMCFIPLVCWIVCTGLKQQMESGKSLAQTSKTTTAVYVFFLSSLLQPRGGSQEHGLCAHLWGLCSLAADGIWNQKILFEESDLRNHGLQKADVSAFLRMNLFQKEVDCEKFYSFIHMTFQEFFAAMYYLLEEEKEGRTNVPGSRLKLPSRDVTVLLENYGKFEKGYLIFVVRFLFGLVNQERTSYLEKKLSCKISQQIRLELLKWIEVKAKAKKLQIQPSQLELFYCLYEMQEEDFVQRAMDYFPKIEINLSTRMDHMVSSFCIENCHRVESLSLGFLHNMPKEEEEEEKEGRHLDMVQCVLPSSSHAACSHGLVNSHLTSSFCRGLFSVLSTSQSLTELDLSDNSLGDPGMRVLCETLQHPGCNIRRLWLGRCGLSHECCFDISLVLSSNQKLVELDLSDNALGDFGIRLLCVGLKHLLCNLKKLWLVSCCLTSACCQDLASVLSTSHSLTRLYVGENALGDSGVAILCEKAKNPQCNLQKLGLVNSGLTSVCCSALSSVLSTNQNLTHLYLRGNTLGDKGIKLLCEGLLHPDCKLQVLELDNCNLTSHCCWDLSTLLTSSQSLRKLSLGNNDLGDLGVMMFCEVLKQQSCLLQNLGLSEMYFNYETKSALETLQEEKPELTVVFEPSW

## O=C(Nc1c2c(cc3c1CCC3)CCC2)NS(=O)(=O)c1cnn2c1C(F)(F)CCC2
[1]; [2]
  pIC50: < 5.00
NLRP3 inflammasome; [3]
  pIC50: 6.00 to 7.00

## CC1CCOc2c(S(=O)(=O)NC(=O)Nc3c4c(cc5c3CCC5)CCC4)cnn21 (stereo not drawn) [drawing 502]
NLRP3 inflammasome; [4]
  pIC50: 6.00 to 7.00

## CC1(O)COc2c(S(=O)(=O)NC(=O)Nc3c4c(cc5c3CCC5)CCC4)cnn2C1 (stereo not drawn)
[1]; [2]
  pIC50: > 7.00
NLRP3 inflammasome; [3]
  pIC50: 6.00 to 7.00

## CN[C@H]1COc2c(S(=O)(=O)NC(=O)Nc3c(C(C)C)cc(F)cc3C(C)C)cnn2C1
NLRP3 inflammasome; [3]
  pIC50: > 7.00

## O=C(Nc1c2c(cc3c1CCC3)CCC2)NS(=O)(=O)c1cnn2c1OCC(O)C2 (stereo not drawn) [drawing 500]
NLRP3 inflammasome; [4]
  pIC50: > 7.00

## O=C(Nc1c2c(cc3c1CCC3)CCC2)NS(=O)(=O)c1cnn2c1OCC(F)C2 (stereo not drawn) [drawing 503]
NLRP3 inflammasome; [4]
  pIC50: 6.00 to 7.00

## O=C(Nc1c2c(cc3c1CCC3)CCC2)NS(=O)(=O)c1cnn2c1OCC1(COC1)C2 [drawing 496]
NLRP3 inflammasome; [4]
  pIC50: 6.00 to 7.00

## O=C(Nc1c2c(cc3c1CCC3)CCC2)NS(=O)(=O)c1cnn2c1OCC1(COC1)C2 [drawing 510]
NLRP3 inflammasome; [3]
  pIC50: 6.00 to 7.00

## NCC1COc2c(S(=O)(=O)NC(=O)Nc3c4c(cc5c3CCC5)CCC4)cnn2C1 (stereo not drawn)
NLRP3 inflammasome; [3]
  pIC50: 6.00 to 7.00

## CC1(C)Cc2cccc(NC(=O)NS(=O)(=O)c3cnn4c3OCCC4)c2O1
NLRP3 inflammasome; [3]
  pIC50: < 5.00

## O=C(Nc1c2c(cc3c1CCC3)CCC2)NS(=O)(=O)c1cnn2c1OCC(CNC(=O)C(F)(F)F)C2 (stereo not drawn)
NLRP3 inflammasome; [3]
  pIC50: > 7.00

## O=C(Nc1c2c(c(Cl)c3c1CCC3)CCC2)NS(=O)(=O)c1cnn2c1OCCC2 [drawing 506]
NLRP3 inflammasome; [4]
  pIC50: > 7.00

## O=C(Nc1c2c(c(Cl)c3c1CCC3)CCC2)NS(=O)(=O)c1cnn2c1OCCC2 [drawing 520]
NLRP3 inflammasome; [3]
  pIC50: > 7.00

## COC1COc2c(S(=O)(=O)NC(=O)Nc3c4c(cc5c3CCC5)CCC4)cnn2C1 (stereo not drawn) [drawing 504]
NLRP3 inflammasome; [4]
  pIC50: > 7.00

## O=C(Nc1c2c(cc3c1CCC3)CCC2)NS(=O)(=O)c1cc2n(n1)CCNC2=O
NLRP3 inflammasome; [3]
  pIC50: 6.00 to 7.00

## COC1CN(C2COc3c(S(=O)(=O)NC(=O)Nc4c5c(cc6c4CCC6)CCC5)cnn3C2)C1 (stereo not drawn)
[1]
  pIC50: > 7.00

## CC1(C)COc2c(S(=O)(=O)NC(=O)Nc3c4c(c(Cl)c5c3CCC5)CCC4)cnn2C1
NLRP3 inflammasome; [3]
  pIC50: 6.00 to 7.00

## CN1CCn2ncc(S(=O)(=O)NC(=O)Nc3c4c(cc5c3CCC5)CCC4)c2C1=O
[1]
  pIC50: 5.00 to 6.00

## COC1CN([C@@H]2COc3c(S(=O)(=O)NC(=O)Nc4c5c(cc6c4CCC6)CCC5)cnn3C2)C1
[1]
  pIC50: > 7.00

## COc1ccc2cccnc2c1NC(=O)NS(=O)(=O)c1cnn2c1OCCC2
NLRP3 inflammasome; LPS, nigericin
  PBMC IL-1β IC50: No Curve

## O=S(=O)(NC(=S)Nc1c2c(cc3c1CCC3)CCC2)c1cnn2c1OCCC2 [drawing 494]
NLRP3 inflammasome; [4]
  pIC50: 5.00 to 6.00

## COC1CN([C@H]2COc3c(S(=O)(=O)NC(=O)Nc4c5c(cc6c4CCC6)CCC5)cnn3C2)C1 [drawing 580]
[1]
  pIC50: > 7.00

## CN[C@@H]1COc2c(S(=O)(=O)NC(=O)Nc3c4c(cc5c3CCC5)CCC4)cnn2C1
[1]
  pIC50: 6.00 to 7.00

## CO[C@H]1COc2c(S(=O)(=O)NC(=O)Nc3c4c(c(F)c5c3CCC5)CCC4)cnn2C1
NLRP3 inflammasome; [3]
  pIC50: > 7.00

## CC1(C)COc2c(S(=O)(=O)NC(=O)Nc3c4c(cc5c3CCC5)CCC4)cnn2C1 [drawing 499]
NLRP3 inflammasome; [4]
  pIC50: > 7.00

## CN1CCn2nc(S(=O)(=O)NC(=O)Nc3c4c(cc5c3CCC5)CCC4)cc2C1=O
NLRP3 inflammasome; [3]
  pIC50: 5.00 to 6.00

## CC(C)c1cccc(C(C)C)c1NC(=O)NS(=O)(=O)c1cnn2c1OCCC2 [drawing 511]
NLRP3 inflammasome; [3]
  pIC50: 5.00 to 6.00

## CC(C)c1cccc(C(C)C)c1NC(=O)NS(=O)(=O)c1cnn2c1OCCC2 [drawing 497]
NLRP3 inflammasome; [4]
  pIC50: 5.00 to 6.00

## CN(C)[C@@H]1COc2c(S(=O)(=O)NC(=O)Nc3c4c(cc5c3CCC5)CCC4)cnn2C1
[1]
  pIC50: < 5.00

## CC(C)c1cc(Cl)cc(C(C)C)c1NC(=O)NS(=O)(=O)c1cnn2c1OCCC2 [drawing 498]
NLRP3 inflammasome; [4]
  pIC50: 6.00 to 7.00

## CN(C)CC1COc2c(S(=O)(=O)NC(=O)Nc3c4c(cc5c3CCC5)CCC4)cnn2C1 (stereo not drawn)
[1]
  pIC50: 5.00 to 6.00

## CC(C)c1cc(Cl)cc(C(C)C)c1NC(=O)NS(=O)(=O)c1cnn2c1OCCC2 [drawing 512]
NLRP3 inflammasome; [3]
  pIC50: 6.00 to 7.00

## CC1CCn2ncc(S(=O)(=O)NC(=O)Nc3c4c(cc5c3CCC5)CCC4)c2O1 (stereo not drawn) [drawing 505]
NLRP3 inflammasome; [4]
  pIC50: > 7.00

## O=C(Nc1c2c(cc3c1CCC3)CCC2)NS(=O)(=O)c1cnn2c1OCCCC2 [drawing 501]
NLRP3 inflammasome; [4]
  pIC50: 6.00 to 7.00
